# ChEMBL document CHEMBL1201862, “PubChem BioAssay data set” (2004)
# The source made the active and inactive calls.
# Experiments:
# Bcl-2-related protein A1 [1] = molecular target: T1, Bcl-2-related protein A1 (Mus musculus, UniProt Q07440); assay: Bfl-1 binding inhibitors, SAR follow-up, biochemical, fluorescence polarization (AID 1070)
# T1 sequence (Q07440 whole entry): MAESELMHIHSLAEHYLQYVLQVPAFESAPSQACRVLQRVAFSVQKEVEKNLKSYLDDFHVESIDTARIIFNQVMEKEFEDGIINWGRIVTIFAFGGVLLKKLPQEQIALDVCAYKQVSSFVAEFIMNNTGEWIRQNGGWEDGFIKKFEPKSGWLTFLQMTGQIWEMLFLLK
# Bcl-2-related protein A1 [2] = molecular target: T1, Bcl-2-related protein A1; assay: small-molecule antagonists of Bfl-1/BH3 interaction – biochemical, TR-FRET, mouse Bfl-1, confirmation (AID 621);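 further: TR-FRET binding of GST-Bfl-1 to FITC-labelled Bid peptide via terbium antibody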
# Large T antigen = Large T antigen (Simian virus 40, UniProt P03070); type: functional, Betapolyomavirus macacae;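 further: Confirmatory-stage PubChem screen for compounds that inhibit SV40 T antigen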
# [3] = molecular target: G-protein coupled receptor 55 (Homo sapiens, UniProt Q9Y2T6); assay: inhibition of LPI-stimulated GPR55 beta-arrestin translocation – imaging, U2OS, beta-arrestin-GFP, LPI agonist, primary screen (AID 2013); type: functional;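 further: antagonist potency measured as reduced agonist-driven arrestin aggregation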
# [4] = molecular target: E3 ubiquitin-protein ligase Mdm2 (Homo sapiens, UniProt Q00987); assay: MDM2-luc reporter signal enhancers, multi-concentration potency testing, MDM2 ubiquitin-protein ligase inhibitor program, whole-cell format, luminescence detection, 384-well microplate (AID 1394); type: functional;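 further: MDM2 E3 inhibitors raise luminescence so EC50 is for signal enhancement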
# [5] = molecular target: T2, Small ubiquitin-related modifier 1 (Homo sapiens, UniProt P63165); assay: SUMO1 protein-protein binding blockers, potency – biochemical, FRET, dose response (AID 624383); type: functional; settings: read-out: IC50_Mean
# [6] = molecular target: T2, Small ubiquitin-related modifier 1; assay: SUMO1 protein interaction blockers, potency – biochemical, fluorescence polarization, uHTS hits, dose response (AID 624382); type: functional; settings: read-out: IC50_Mean
# [7] = molecular target: T3, Small ubiquitin-related modifier 2 (Homo sapiens, UniProt P61956); assay: disruption of SUMO2 interaction with SIM peptide – biochemical, fluorescence polarization, uHTS hits, selectivity assay for SUMO1 interaction inhibitor project, dose response (AID 624385); type: functional; settings: read-out: IC50_Mean
# [8] = molecular target: T3, Small ubiquitin-related modifier 2; assay: SUMO2 binding disruption by SUMO1 hits – biochemical, FRET, human SUMO2, uHTS hits, selectivity assay for SUMO1 interaction inhibitor project, dose response (AID 624384); type: functional; settings: read-out: IC50_Mean
# [9] = molecular target: Eukaryotic translation initiation factor 4E (Mus musculus, UniProt P63073); assay: blockers of eIF4G binding by eIF4E – biochemical, TR-FRET, dose response (AID 855); type: functional;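 further: potency for disrupting eIF4E binding to eIF4GI seen as loss of FRET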
# [10] = molecular target: Acetyl-CoA acetyltransferase/HMG-CoA reductase (Enterococcus faecalis, UniProt Q9FD70); assay: class II HMG-CoA reductase inhibition potency – biochemical, Enterococcus faecalis, confirmation (AID 1233); type: functional
# Vero [11] = assay: mammalian cell viability reduction – secondary assay, cytotoxicity control for West Nile virus antiviral project, dose response (AID 1650); type: functional; settings: Chlorocebus sabaeus
# [12] = fluconazole-exposed Candida albicans growth modulators – fluorescence, retest, confirmation (AID 2467); type: functional, cell-based
# [13] = NIH-3T3 fibroblast cytotoxicity, dose response, cytotoxicity control, cell-based, fluorescence, Alamar Blue, secondary assay (AID 2327); type: functional;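 further: NIH-3T3 mouse fibroblasts cultured with fluconazole at 8 µg/mL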
# Vero [14] = assay: viability of Vero cells under compound – cytotoxicity control for flavivirus capping enzyme inhibitors (AID 588742); type: functional; settings: Chlorocebus sabaeus
# [15] = molecular target: T4, Mannose-6-phosphate isomerase (Homo sapiens, UniProt P34949); assay: MPI inhibition at elevated mannose 6-phosphate – biochemical, fluorescence intensity, high mannose 6-phosphate, primary screen (AID 1220)
# T4 sequence (P34949 whole entry): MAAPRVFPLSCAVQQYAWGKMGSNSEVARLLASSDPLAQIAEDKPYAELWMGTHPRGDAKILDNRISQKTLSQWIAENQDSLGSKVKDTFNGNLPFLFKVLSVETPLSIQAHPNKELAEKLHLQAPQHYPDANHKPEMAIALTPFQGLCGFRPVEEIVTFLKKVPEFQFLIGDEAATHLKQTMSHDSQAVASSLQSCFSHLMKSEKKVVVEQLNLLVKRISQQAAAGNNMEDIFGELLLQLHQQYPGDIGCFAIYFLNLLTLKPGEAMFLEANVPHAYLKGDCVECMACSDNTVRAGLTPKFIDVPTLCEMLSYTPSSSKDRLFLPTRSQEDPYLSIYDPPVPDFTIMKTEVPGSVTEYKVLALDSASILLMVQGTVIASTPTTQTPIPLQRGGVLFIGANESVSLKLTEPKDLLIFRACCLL
# NADPH oxidase 1 [16] = molecular target: T5, NADPH oxidase 1 (Homo sapiens, UniProt Q9Y5S8); assay: Late-stage luminescence-based cell-based dose response assay to identify inhibitors of NADPH oxidase 1 (NOX1): Synthesized analogs 2.; type: functional
# T5 sequence (Q9Y5S8 whole entry): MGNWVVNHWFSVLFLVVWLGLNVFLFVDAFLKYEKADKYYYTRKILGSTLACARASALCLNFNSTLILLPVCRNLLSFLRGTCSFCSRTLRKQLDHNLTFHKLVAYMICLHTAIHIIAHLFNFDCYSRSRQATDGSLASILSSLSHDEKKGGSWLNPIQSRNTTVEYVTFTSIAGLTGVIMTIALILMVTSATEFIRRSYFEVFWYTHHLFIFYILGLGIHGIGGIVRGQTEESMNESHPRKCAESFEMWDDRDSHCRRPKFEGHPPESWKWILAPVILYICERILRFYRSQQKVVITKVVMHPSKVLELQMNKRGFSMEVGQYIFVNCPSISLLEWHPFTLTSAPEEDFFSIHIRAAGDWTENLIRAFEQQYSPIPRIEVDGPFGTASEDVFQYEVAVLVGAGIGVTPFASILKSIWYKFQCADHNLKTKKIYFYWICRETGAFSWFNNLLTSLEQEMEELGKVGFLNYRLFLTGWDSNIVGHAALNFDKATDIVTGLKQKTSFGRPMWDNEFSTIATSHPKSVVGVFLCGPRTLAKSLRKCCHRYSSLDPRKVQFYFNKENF
# [17] = viability loss in human Jurkat cells – cell-based, luminescence, cytotoxicity control for P. falciparum gametocyte viability project, dose response (AID 1117277); type: functional;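 further: potency reflects loss of cellular ATP meaning fewer viable cells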
# [18] = molecular target: Induced myeloid leukemia cell differentiation protein Mcl-1 (Homo sapiens, UniProt Q07820); type: functional
# Genome polyprotein = Genome polyprotein (Hepatitis C virus, UniProt Q2Q167); assay: disruption of hepatitis C core self-association – biochemical, TR-FRET, dose response (AID 2159); design: species or system Hepacivirus hominis;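 further: blocks dimerization of HCV core protein measured by TR-FRET between tagged core106 pairs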
# [19] = viability inhibitors of stage V gametocytes – luminescence, dose response (AID 1117278); type: functional, cell-based;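 further: gametocytes exposed to compound for 24 hours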
# [20] = Luminescence Cell-Based Dose Confirmation to Identify Activators of 5'UTR Stem-Loop Driven Alpha-Synuclein mRNA Translation in H4 Neuroglioblastoma Cells. [Related pubchem assays: 1829 (Project Summary), 1814 (Primary HTS)]; type: functional
# H4 = assay: Luminescence Cell-Based Dose Response HTS to Identify Activators of 5'UTR Stem-Loop Driven Prion Protein mRNA Translation in H4 Neuroglioblastoma Cells. [Related pubchem assays: 1829 (Project Summary), 1814 (Primary HTS)]; type: functional; settings: Homo sapiens
# [21] = Luminescence Cell-Based Dose Response to Identify Activators of 5'UTR Stem-Loop Driven Prion Protein mRNA Translation in H4-C Neuroglioblastoma Cells. [Related pubchem assays: 1829 (Project Summary), 1814 (Primary HTS)]; type: functional
# [22] = Luminescence Cell-Based Dose Response HTS to Identify Activators of Luciferase Translation or Activity in H4 […] Cells. [Related pubchem assays: 1829 (Project Summary), 1814 (Primary HTS)]; type: functional
# [23] = Luminescence Cell-Based Dose Response to Identify Activators of Luciferase Translation or Activity in H4-C Neuroglioblastoma Cells. [Related pubchem assays: 1829 (Project Summary), 1814 (Primary HTS)]; type: functional
# [24] = tested on: Streptococcus sp. 'group A'; assay: Streptococcus pyogenes SK(-)GAS viability under kanamycin – luminescence, BacTiterGlo, confirmation, counter-screen for streptokinase expression inhibitor project, dose response (AID 1900); type: functional, organism-based
# Streptokinase A = molecular target: T6, Streptokinase A (Streptococcus pyogenes serotype M1, UniProt P10520); assay: viability-normalized secreted streptokinase activity reduction – plasminogen activation absorbance, OD405, dose response (AID 1914); type: functional, Streptococcus pyogenes M1 GAS;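 further: secreted streptokinase activity via plasminogen activation per viability signal from cell pellet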
# T6 sequence (P10520 whole entry): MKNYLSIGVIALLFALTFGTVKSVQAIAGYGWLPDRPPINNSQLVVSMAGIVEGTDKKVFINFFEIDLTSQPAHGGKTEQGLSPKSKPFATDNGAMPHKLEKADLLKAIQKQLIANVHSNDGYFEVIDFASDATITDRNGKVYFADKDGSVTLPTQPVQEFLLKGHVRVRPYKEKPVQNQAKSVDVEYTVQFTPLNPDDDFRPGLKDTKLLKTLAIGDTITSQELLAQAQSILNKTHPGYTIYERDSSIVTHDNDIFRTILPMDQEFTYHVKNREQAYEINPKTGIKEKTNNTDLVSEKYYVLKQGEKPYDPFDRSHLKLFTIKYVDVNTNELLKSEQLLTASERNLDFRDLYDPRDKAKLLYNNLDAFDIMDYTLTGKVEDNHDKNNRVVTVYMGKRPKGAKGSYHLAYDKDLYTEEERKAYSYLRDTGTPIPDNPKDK
# Streptococcus = assay: GAS UMAA2166 growth inhibition – luminescence, BacTiterGlo, counter-screen for streptokinase expression inhibitor project, dose response (AID 1915); type: functional, organism-based;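 further: potency for reduction of bacterial viability or growth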
# [25] = Luminescent dose response cell-based high throughput screening assay for inhibitors of the Janus kinase 2 mutant JAK2V617F. [Related pubchem assays: 1446 (Primary screen.), 1521 (Confirmation assay.), 1486 (Counter screen.)]; type: functional
# NADPH oxidase 1 [26] = molecular target: T5, NADPH oxidase 1; assay: Late-stage luminescence-based cell-based dose response assay to identify inhibitors of NADPH oxidase 1 (NOX1): Purchased analogs 2.; type: functional
# [27] = molecular target: Voltage-gated inwardly rectifying potassium channel KCNH2 (Homo sapiens, UniProt Q12809); assay: concentration-dependent hERG rescue from blockers – cell-based, thallium flux, dose response (AID 2121); type: ADME
# cells = type: functional
# [28] = molecular target: T7, Corticotropin-releasing factor receptor 2/Corticotropin-releasing factor-binding protein (Homo sapiens, UniProt P24387+Q13324); assay: activators of CRF receptor 2 with binding protein – uHTS hits, confirmation (AID 602473); type: functional; settings: read-out: EC50_Mean
# T7 sequence (Q13324 whole entry): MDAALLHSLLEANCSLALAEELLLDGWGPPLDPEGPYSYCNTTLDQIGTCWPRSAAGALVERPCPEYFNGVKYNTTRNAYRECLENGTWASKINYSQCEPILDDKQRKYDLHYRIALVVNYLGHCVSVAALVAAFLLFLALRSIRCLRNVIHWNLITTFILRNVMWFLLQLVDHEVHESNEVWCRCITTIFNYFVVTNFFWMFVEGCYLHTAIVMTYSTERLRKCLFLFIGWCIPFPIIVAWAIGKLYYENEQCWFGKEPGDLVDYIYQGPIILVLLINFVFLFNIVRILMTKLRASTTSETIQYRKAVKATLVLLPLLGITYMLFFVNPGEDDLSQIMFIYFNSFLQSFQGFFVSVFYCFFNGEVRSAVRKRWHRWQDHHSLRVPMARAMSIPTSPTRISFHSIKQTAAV
# T7 sequence (P24387 whole entry): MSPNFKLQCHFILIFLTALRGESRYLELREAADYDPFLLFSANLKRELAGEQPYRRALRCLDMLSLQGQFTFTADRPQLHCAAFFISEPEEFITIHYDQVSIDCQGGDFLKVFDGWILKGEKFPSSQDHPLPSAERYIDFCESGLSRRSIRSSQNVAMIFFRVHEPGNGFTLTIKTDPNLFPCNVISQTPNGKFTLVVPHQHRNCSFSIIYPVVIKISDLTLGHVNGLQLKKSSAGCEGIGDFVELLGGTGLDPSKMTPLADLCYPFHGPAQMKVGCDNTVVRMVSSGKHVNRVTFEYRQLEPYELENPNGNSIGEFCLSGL
# [29] = M. tuberculosis growth inhibition, HTS (AID 449762); type: functional
# T3 sequence (P61956 whole entry): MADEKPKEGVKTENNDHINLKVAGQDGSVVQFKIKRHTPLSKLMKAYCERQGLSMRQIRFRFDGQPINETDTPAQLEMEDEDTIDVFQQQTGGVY
# T2 sequence (P63165 whole entry): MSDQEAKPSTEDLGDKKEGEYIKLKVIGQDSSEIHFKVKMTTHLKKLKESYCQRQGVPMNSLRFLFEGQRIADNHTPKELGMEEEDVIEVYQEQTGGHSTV
# Chain of Induced myeloid leukemia cell differentiation protein Mcl-1 (Q07820 whole entry): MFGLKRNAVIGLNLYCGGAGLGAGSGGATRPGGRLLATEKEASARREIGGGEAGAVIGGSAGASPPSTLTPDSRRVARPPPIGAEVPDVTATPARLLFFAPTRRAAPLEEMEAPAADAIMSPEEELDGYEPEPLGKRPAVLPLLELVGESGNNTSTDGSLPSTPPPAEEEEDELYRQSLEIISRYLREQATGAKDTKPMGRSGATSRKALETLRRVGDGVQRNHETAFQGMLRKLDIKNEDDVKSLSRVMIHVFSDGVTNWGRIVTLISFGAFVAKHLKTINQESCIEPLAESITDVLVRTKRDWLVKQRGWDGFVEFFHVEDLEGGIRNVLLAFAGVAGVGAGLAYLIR
# Chain of Large T antigen (P03070 whole entry): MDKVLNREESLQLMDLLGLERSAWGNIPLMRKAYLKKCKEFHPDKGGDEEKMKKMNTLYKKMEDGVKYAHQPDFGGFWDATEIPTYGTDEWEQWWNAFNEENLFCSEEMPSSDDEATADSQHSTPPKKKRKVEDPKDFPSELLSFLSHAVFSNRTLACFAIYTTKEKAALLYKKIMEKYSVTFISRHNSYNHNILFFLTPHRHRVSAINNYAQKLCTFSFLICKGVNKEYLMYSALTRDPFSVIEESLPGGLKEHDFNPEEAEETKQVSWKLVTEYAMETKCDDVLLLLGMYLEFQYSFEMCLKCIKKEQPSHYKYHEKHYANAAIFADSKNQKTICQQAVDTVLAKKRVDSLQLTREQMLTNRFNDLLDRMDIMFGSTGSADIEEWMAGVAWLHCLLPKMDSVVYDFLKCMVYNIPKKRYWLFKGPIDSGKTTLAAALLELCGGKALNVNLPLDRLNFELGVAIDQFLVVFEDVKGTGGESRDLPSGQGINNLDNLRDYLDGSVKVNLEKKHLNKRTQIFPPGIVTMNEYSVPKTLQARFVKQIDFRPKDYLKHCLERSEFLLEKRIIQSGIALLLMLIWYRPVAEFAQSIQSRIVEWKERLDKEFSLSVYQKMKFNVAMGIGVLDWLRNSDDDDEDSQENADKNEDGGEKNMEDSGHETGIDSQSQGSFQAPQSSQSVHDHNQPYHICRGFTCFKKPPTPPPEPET
# Chain of Genome polyprotein (Q2Q167 whole entry): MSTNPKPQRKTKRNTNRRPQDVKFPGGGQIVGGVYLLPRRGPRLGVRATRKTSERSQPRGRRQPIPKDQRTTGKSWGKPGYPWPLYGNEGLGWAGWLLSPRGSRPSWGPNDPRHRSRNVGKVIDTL
# Chain of Eukaryotic translation initiation factor 4E (P63073 whole entry): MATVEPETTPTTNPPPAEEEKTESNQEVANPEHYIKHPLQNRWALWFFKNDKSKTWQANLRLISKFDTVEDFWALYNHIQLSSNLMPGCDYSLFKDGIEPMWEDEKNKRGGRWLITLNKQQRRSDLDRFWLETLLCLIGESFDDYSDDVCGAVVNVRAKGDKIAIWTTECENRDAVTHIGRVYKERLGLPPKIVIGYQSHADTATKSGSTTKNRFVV
# Chain of E3 ubiquitin-protein ligase Mdm2 (Q00987 whole entry): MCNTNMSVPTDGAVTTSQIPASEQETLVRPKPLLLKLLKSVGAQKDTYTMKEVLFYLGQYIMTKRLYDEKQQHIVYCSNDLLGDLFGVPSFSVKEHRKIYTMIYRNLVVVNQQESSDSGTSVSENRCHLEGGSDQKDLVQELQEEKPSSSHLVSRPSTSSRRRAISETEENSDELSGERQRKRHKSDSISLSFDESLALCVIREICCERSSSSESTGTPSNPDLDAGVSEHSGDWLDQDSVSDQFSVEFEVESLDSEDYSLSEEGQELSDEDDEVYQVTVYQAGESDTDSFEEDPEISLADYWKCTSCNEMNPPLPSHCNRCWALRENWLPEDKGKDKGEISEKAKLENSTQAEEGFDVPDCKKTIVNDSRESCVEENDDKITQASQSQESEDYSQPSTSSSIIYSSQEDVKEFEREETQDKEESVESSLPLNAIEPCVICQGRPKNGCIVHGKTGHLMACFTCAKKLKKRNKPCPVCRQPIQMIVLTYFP
# Chain of G-protein coupled receptor 55 (Q9Y2T6 whole entry): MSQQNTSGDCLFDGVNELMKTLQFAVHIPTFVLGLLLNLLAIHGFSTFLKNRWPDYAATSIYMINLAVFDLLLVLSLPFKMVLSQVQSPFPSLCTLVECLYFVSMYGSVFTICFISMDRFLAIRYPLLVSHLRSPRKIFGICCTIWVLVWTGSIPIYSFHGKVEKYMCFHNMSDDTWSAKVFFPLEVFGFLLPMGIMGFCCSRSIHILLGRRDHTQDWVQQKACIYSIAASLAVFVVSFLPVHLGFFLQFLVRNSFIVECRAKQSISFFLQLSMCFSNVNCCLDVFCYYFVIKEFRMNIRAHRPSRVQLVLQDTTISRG
# Chain of Voltage-gated inwardly rectifying potassium channel KCNH2 (Q12809 whole entry): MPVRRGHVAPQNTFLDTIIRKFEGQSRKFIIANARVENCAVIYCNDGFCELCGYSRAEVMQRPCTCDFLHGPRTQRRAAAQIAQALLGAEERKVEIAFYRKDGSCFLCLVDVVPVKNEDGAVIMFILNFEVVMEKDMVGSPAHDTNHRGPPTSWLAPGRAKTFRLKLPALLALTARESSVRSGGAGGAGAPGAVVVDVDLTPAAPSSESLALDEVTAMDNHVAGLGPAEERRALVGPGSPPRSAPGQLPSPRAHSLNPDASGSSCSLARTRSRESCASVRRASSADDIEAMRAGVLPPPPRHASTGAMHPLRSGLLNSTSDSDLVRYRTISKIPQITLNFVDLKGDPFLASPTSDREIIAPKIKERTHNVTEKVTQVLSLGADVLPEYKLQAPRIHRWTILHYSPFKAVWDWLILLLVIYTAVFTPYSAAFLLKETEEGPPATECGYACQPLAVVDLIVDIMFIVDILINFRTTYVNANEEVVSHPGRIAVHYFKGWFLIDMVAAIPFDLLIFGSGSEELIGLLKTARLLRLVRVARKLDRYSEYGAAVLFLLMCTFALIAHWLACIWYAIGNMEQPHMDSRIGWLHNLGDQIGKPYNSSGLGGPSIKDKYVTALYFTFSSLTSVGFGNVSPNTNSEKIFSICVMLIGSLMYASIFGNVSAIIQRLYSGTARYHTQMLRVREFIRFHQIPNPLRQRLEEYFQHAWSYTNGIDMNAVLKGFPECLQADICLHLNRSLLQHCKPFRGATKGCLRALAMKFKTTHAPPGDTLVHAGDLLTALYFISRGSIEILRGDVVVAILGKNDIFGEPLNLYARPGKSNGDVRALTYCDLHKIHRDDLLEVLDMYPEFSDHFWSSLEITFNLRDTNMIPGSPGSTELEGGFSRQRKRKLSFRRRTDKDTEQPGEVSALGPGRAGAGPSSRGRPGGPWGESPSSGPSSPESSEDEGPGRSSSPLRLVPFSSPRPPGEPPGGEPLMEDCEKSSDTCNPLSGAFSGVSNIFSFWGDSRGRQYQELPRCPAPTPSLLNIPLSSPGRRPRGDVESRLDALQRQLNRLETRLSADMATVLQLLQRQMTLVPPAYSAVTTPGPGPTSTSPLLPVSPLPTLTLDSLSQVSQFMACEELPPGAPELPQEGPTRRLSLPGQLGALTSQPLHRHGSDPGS
smiles,measurement,setting,value
C[C@H]1CN(C2=C(Cl)C(=O)N(c3ccc(Cl)c(Cl)c3)C2=O)CCN1,IC50,Bcl-2-related protein A1 [1],1.32 µM (active)
same,IC50,Bcl-2-related protein A1 [2],1.25 µM (active)
CC1=NN(c2cccc(C(=O)O)c2)C(=O)/C1=C\C=C/c1ccccc1,IC50,Large T antigen,20.4 µM (active)
same,IC50,[3],3.3 µM (active)
same,EC50,[4],4.82 µM (active)
O=C(CSc1nc(-c2ccccc2)nc2c1Cc1ccccc1O2)Nc1ccc(C(=O)O)cc1,IC50,[5],5.3 µM (active)
same,IC50,[6],23.1 µM (inactive)
same,IC50,[7],35.1 µM (inactive)
same,IC50,[8],6.38 µM (active)
same,IC50,[9],17.1 µM (active)
same,IC50,[10],164 µM (active)
Nc1nsc2ccccc12,CC50,Vero [11],41.7 µM (active)
same,EC50,[12],3.19 µM (active)
same,EC50,[13],24.5 µM (inconclusive)
CCc1cccc(C)c1N=C(S)NCC1CCN(c2ccc(OC)cc2)C1 (stereo not given),CC50,Vero [14],> 40 µM (active)
same,IC50,[15],> 50 µM (not active)
O=C(c1ccccc1)c1ccccc1N1c2ccccc2Sc2ccccc21,IC50,NADPH oxidase 1 [16],> 50 µM (not active)
CCN(CC)S(=O)(=O)c1ccc(N2CCOCC2)c(NC(=O)c2c3c(nc4ccccc24)CCC3)c1,IC50,[17],> 83.3 µM (inactive)
same,IC50,[18],5.07 µM (active)
same,IC50,Genome polyprotein,> 49.8 µM (not active)
same,IC50,[19],> 109 µM (inactive)
S=C(c1ccc(-c2ccc(Br)cc2)o1)N1CCOCC1,EC50,[20],0.251 µM (active)
same,EC50,H4,18.6 µM (inconclusive)
same,EC50,[21],0.507 µM (active)
same,EC50,[22],< 0.1 µM (active)
same,EC50,[23],0.378 µM (active)
O=C(Oc1cccc2c(O)cccc12)c1ccccc1,EC50,[24],29 µM (active)
same,EC50,Streptokinase A,63.7 µM (active)
same,EC50,Streptococcus,> 150 µM (not active)
same,IC50,[25],7.47 µM (active)
Cc1cc(Cl)ccc1NC(=S)NNC(=S)Nc1ccc(Cl)cc1C,IC50,NADPH oxidase 1 [26],3.51 µM (active)
CCOc1ccc2nc(/N=C/c3nc(-c4ccccc4)oc3O)sc2c1,EC50,[27],1.69 µM (active)
same,IC50,cells,3.76 µM (active)
same,EC50,[28],14.6 µM (active)
same,IC50,[29],> 100 µM (active)
